Experimental findings from US20220257646A1, “COMPOSITIONS AND METHODS FOR TREATING SKIN CONDITIONS” (The Regents of the University of California, priority 2019, published 2022) are described below.

The subject of this assay is P. acnes strains. The assay is described as follows: Porphyrin production by P. acnes strains in culture media (iron/cobalt supplemented or depleted). The format is cell-based, Propionibacterium acnes.

For `[Co]` [cobalt], where the note is “depletion of cobalt, P. acnes (FIG. 5)”, the porphyrin production result is recorded as “significantly promoted the porphyrin production”.
`[Fe]` [iron]: the porphyrin production result is, setting by setting: (acne associated P. acnes strains (FIG. 4)) “reduces porphyrin production”; (iron depletion, acne associated P. acnes strains (FIG. 6)) “increases porphyrin production”; (iron supplemented in the media, P. acnes strains (FIG. 1)) “low porphyrin production”. Also, the “chelator effect on porphyrin production” value (iron added back to iron depleted (chelated) media, P. acnes strains (FIG. 4)) is reported as “diminishes chelator effect”. For the same compound, the “effect of iron depletion on porphyrin production” value (vitamin B12 supplemented conditions, acne associated P. acnes strains (FIG. 6)) was “remains”.
